Laboratory results as given in ChEMBL document CHEMBL5518185, “Design, synthesis and antitumor activity of 4-arylamine substituted pyrimidine derivatives as noncovalent EGFR inhibitors overcoming C797S mutation” (Eur J Med Chem, 2024).
The source made the active and inactive calls. No cut-off for these calls is given here.

Columns and labels:
NCI-H1975 = assay: Antiproliferative activity against human NCI-H1975 cells assessed as inhibition of cell growth measured after 72 hrs by MTT assay; assay type: functional, cell-based; conditions: NCI-H1975, 72 h
[1] = test system: Epidermal growth factor receptor (Homo sapiens), P00533 [UNDEFINED MUTATION]; conditions: dose 30.0 nM
[2] = test system: Epidermal growth factor receptor (Homo sapiens), P00533 [UNDEFINED MUTATION]; conditions: dose 100.0 nM
A549 = assay: Antiproliferative activity against human A549 cells assessed as inhibition of cell growth measured after 72 hrs by MTT assay; assay type: functional, cell-based; conditions: A549, 72 h
HCC827 [3] = assay: Antiproliferative activity against human HCC827 cells assessed as inhibition of cell growth measured after 72 hrs by MTT assay; assay type: functional, cell-based; conditions: HCC827, 72 h
HCC827 [4] = assay: Induction of cell cycle arrest in human HCC827 cells assessed as accumulation of cells at G2/M phase at 100 nM measured after 24 hrs by PI staining based flow cytometry analysis (reference value: 16.83%); assay type: functional
[5] = target: T1, Epidermal growth factor receptor (Homo sapiens, UniProt P00533); assay: Inhibition of wild type EGFR (unknown origin) preincubated for 10 mins followed by substrate addition and measured after 50 mins in presence of ATP by HTRF assay
Homo sapiens [6] = species on record: Homo sapiens; assay: Inhibition of FGFR (unknown origin) by HTRF assay relative to control; conditions: concentration not given here
HCC827 [7] = assay: Induction of cell cycle arrest in human HCC827 cells assessed as accumulation of cells at G2/M phase at 10 nM measured after 24 hrs by PI staining based flow cytometry analysis (reference value: 16.83%); assay type: functional
[8] = target: Proto-oncogene tyrosine-protein kinase ROS (Homo sapiens) (UniProt P08922); assay: Inhibition of ROS (unknown origin) by HTRF assay relative to control; conditions: concentration not given here
HCC827 [9] = assay: Induction of cell cycle arrest in human HCC827 cells assessed as accumulation of cells at G0/G1 phase at 30 nM measured after 24 hrs by PI staining based flow cytometry analysis (reference value: 54.36%); assay type: functional
[10] = target: Epidermal growth factor receptor (Homo sapiens, UniProt P00533, C797S/EX19DEL/T790M); assay: Inhibition of EGFR Del19/T790M/C797S triple mutant (unknown origin) preincubated for 10 mins followed by substrate addition and measured after 50 mins in presence of ATP by HTRF assay
HCC827 [11] = assay: Inhibition of colony formation in human HCC827 cells at 10 to 100 nM measured after 14 days by crystal violet staining based analysis; assay type: functional, cell-based; conditions: dose 10-100 nM, time 14.0 day
[12] = target: Tyrosine-protein kinase BTK (Homo sapiens) (UniProt Q06187); assay: Inhibition of BTK (unknown origin) by HTRF assay relative to control; conditions: concentration not given here
Homo sapiens [13] = species on record: Homo sapiens; assay: Inhibition of Akt (unknown origin) by HTRF assay relative to control; conditions: concentration not given here
[14] = target: Insulin-like growth factor 1 receptor (Homo sapiens) (UniProt P08069); assay: Inhibition of IGF-1R (unknown origin) by HTRF assay relative to control; conditions: concentration not given here
[15] = Cytotoxicity against human 2BS cells assessed as inhibition of cell viability measured after 72 hrs by MTT assay; assay type: toxicity, cell-based
HCC827 [16] = assay: Induction of cell cycle arrest in human HCC827 cells assessed as accumulation of cells at S phase at 100 nM measured after 24 hrs by PI staining based flow cytometry analysis (reference value: 28.81%); assay type: functional
Homo sapiens [17] = species on record: Homo sapiens; assay: Inhibition of VGFR (unknown origin) by HTRF assay relative to control; conditions: concentration not given here
[18] = target: Proto-oncogene tyrosine-protein kinase Src (Homo sapiens) (UniProt P12931); assay: Inhibition of Src (unknown origin) by HTRF assay relative to control; conditions: concentration not given here
[19] = Inhibition of ERK (unknown origin) by HTRF assay relative to control; conditions: Homo sapiens; concentration not given here
[20] = target: Epidermal growth factor receptor (Homo sapiens, UniProt P00533, C797S/L858R/T790M); assay: Inhibition of EGFR L858R/T790M/C797S triple mutant (unknown origin) preincubated for 10 mins followed by substrate addition and measured after 50 mins in presence of ATP by HTRF assay
HCC827 [21] = assay: Induction of cell cycle arrest in human HCC827 cells assessed as accumulation of cells at S phase at 30 nM measured after 24 hrs by PI staining based flow cytometry analysis (reference value: 28.81%); assay type: functional
[22] = target: Platelet-derived growth factor receptor alpha (Homo sapiens) (UniProt P16234); assay: Inhibition of PDGFR alpha (unknown origin) by HTRF assay relative to control; conditions: concentration not given here
[23] = target: Tyrosine-protein kinase ABL1 (Homo sapiens) (UniProt P00519); assay: Inhibition of Abl (unknown origin) by HTRF assay relative to control; conditions: concentration not given here
[24] = target: RAF proto-oncogene serine/threonine-protein kinase (Homo sapiens) (UniProt P04049); assay: Inhibition of c-RAF (unknown origin) by HTRF assay relative to control; conditions: concentration not given here
[25] = target: Epidermal growth factor receptor (Homo sapiens, UniProt P00533, L858R/T790M); assay: Inhibition of EGFR L858R/T790M (unknown origin) preincubated for 10 mins followed by substrate addition and measured after 50 mins in presence of ATP by HTRF assay
[26] = target: Mast/stem cell growth factor receptor Kit (Homo sapiens) (UniProt P10721); assay: Inhibition of c-kit (unknown origin) by HTRF assay relative to control; conditions: concentration not given here
[27] = target: Serine/threonine-protein kinase mTOR (Homo sapiens) (UniProt P42345); assay: Inhibition of mTOR (unknown origin) by HTRF assay relative to control; conditions: concentration not given here
HCC827 [28] = assay: Induction of cell cycle arrest in human HCC827 cells assessed as accumulation of cells at G2/M phase at 30 nM measured after 24 hrs by PI staining based flow cytometry analysis (reference value: 16.83%); assay type: functional
[29] = target: Epidermal growth factor receptor (Homo sapiens, UniProt P00533, EX19DEL/T790M); assay: Inhibition of EGFR Del19/T790M (unknown origin) preincubated for 10 mins followed by substrate addition and measured after 50 mins in presence of ATP by HTRF assay
HCC827 [30] = assay: Induction of cell cycle arrest in human HCC827 cells assessed as accumulation of cells at S phase at 10 nM measured after 24 hrs by PI staining based flow cytometry analysis (reference value: 28.81%); assay type: functional
[31] = Cytotoxicity against human L02 cells assessed as inhibition of cell viability measured after 72 hrs by MTT assay; assay type: toxicity, cell-based
[32] = target: Dual specificity mitogen-activated protein kinase kinase; MEK1/2 (Homo sapiens) (UniProt P36507+Q02750); assay: Inhibition of MEK1/2 (unknown origin) by HTRF assay relative to control; assay type: protein assay; conditions: concentration not given here
[33] = target: T1, Epidermal growth factor receptor; assay: Inhibition of wild type EGFR (unknown origin) at 100 nM preincubated for 10 mins followed by substrate addition and measured after 50 mins in presence of ATP by HTRF assay relative to control; conditions: time 60.0 min
HCC827 [34] = assay: Induction of cell cycle arrest in human HCC827 cells assessed as accumulation of cells at G0/G1 phase at 100 nM measured after 24 hrs by PI staining based flow cytometry analysis (reference value: 54.36%); assay type: functional
HCC827 [35] = assay: Induction of cell cycle arrest in human HCC827 cells assessed as accumulation of cells at G0/G1 phase at 10 nM measured after 24 hrs by PI staining based flow cytometry analysis (reference value: 54.36%); assay type: functional

Chain of Epidermal growth factor receptor (Homo sapiens), P00533 [UNDEFINED MUTATION] (P00533 whole entry, looked up, stated change not applied): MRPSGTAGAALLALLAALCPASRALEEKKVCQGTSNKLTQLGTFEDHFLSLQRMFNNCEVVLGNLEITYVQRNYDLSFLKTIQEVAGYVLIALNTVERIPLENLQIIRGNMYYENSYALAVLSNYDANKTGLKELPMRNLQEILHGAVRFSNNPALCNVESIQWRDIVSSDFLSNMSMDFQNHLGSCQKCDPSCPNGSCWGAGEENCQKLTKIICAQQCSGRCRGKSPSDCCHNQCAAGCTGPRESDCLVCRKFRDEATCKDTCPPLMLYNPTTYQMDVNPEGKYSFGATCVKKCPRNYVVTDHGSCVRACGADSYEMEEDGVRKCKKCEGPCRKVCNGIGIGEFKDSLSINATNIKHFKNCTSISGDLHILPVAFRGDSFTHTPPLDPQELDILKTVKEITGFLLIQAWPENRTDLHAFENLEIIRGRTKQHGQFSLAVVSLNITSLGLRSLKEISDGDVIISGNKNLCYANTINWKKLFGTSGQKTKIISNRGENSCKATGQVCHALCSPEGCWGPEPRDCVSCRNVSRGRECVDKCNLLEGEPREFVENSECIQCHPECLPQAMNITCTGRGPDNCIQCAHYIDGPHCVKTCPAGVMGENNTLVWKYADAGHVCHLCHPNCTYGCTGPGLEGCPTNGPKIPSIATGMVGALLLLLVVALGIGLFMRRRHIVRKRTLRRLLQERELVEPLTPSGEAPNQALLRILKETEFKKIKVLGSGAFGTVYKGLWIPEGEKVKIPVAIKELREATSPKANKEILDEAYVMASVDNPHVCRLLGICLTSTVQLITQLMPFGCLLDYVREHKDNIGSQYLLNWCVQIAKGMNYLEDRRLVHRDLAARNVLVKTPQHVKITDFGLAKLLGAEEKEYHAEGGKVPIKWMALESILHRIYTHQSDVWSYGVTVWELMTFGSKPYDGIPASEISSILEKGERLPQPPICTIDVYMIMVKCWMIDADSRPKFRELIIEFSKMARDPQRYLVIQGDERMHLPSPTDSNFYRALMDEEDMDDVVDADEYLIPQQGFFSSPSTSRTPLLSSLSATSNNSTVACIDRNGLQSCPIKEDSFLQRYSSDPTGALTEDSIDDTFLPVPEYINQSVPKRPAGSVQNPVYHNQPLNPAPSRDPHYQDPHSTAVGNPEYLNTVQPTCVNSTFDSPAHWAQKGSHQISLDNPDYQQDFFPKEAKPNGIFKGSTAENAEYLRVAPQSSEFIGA
T1 sequence (P00533 whole entry): as the sequence (P00533 whole entry, looked up, stated change not applied) above
Chain of Proto-oncogene tyrosine-protein kinase ROS (Homo sapiens) (P08922 whole entry): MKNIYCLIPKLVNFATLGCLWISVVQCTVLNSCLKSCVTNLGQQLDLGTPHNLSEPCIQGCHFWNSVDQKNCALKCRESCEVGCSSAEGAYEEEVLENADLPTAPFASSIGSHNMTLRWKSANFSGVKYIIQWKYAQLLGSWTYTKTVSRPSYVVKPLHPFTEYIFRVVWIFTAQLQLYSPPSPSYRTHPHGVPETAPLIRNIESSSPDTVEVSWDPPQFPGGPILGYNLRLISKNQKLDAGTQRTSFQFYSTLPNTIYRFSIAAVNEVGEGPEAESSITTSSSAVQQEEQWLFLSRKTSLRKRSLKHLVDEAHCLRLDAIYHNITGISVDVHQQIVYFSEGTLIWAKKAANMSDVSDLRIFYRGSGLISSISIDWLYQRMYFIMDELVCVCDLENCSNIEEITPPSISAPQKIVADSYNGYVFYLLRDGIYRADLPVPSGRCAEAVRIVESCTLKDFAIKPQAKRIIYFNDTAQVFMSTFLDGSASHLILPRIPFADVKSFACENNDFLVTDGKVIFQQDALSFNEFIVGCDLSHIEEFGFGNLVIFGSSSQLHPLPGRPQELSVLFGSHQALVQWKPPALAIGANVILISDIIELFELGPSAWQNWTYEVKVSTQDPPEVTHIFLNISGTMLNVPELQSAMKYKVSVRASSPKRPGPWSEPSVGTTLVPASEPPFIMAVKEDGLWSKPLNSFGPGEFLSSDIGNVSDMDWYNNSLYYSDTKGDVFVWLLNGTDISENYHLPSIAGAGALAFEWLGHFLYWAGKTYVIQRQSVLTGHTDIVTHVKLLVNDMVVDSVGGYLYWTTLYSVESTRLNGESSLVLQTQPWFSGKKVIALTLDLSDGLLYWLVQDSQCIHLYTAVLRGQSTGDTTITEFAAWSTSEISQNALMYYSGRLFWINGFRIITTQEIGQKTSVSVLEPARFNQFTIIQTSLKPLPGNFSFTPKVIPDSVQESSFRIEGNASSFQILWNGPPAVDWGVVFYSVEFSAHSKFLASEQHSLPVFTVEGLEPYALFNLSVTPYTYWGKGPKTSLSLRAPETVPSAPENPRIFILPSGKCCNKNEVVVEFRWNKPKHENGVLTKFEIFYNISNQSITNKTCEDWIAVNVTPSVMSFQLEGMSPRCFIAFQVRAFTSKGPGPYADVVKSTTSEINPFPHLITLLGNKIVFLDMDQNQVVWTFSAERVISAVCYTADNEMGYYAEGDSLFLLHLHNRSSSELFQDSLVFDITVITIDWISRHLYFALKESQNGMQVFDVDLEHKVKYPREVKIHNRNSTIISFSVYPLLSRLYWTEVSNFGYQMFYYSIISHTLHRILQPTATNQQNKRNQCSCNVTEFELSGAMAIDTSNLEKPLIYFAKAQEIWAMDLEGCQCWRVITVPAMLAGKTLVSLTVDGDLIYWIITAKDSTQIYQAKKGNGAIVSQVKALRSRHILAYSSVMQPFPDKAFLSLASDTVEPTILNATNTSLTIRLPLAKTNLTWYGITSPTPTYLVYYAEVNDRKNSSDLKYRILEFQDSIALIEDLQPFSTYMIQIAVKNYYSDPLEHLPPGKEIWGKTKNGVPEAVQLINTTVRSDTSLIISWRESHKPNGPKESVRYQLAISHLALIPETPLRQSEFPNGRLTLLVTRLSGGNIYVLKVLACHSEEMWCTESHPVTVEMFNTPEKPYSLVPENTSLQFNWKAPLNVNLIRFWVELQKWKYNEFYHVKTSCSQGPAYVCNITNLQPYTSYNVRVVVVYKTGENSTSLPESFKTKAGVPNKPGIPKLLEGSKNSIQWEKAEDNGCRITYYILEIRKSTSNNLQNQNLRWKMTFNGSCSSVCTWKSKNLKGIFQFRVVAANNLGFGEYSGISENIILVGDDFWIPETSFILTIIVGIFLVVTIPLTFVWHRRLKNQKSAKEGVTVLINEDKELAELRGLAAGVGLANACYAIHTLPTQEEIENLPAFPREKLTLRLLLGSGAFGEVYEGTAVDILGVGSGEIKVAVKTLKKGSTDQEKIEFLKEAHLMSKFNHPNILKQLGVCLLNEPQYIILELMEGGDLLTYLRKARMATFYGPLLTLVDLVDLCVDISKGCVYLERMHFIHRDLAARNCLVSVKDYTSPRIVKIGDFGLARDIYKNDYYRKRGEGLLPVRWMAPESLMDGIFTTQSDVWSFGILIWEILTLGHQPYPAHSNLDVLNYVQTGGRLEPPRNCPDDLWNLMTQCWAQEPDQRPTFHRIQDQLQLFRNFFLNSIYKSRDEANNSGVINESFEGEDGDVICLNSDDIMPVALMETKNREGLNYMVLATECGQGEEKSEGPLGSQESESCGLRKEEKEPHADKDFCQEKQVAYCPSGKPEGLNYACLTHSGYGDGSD

SMILES: O=C(NO)c1ccsc1Nc1nc(Nc2ccc(OCCN3CCOCC3)cc2)ncc1Cl
- IC50 (NCI-H1975): 249 nM
- inhibition [1]: 36.1%
- inhibition [2]: 66%
- IC50 (A549): 557 nM
- IC50 (HCC827 [3]): 70 nM

SMILES: O=C(NO)c1ccsc1Nc1nc(Nc2ccc(N3CCOCC3)cc2)ncc1Br
- IC50 (NCI-H1975): 2010 nM
- inhibition [1]: 12.4%
- inhibition [2]: 55.9%
- IC50 (A549): 358 nM
- IC50 (HCC827 [3]): 429 nM

SMILES: O=C(NO)c1sccc1Nc1nc(Nc2cccc(N3CCOCC3)c2)ncc1Cl
- IC50 (NCI-H1975): 1200 nM
- inhibition [1]: 15.8%
- inhibition [2]: 45%
- IC50 (A549): 11200 nM
- IC50 (HCC827 [3]): 3250 nM

SMILES: O=C(NO)c1ccsc1Nc1nc(Nc2ccc(CCN3CCOCC3)cc2)ncc1Cl
- IC50 (NCI-H1975): 162 nM
- inhibition [1]: 36.7%
- inhibition [2]: 64.9%
- IC50 (A549): 388 nM
- IC50 (HCC827 [3]): 45 nM

SMILES: O=C(NO)c1sc2ccccc2c1Nc1nc(Nc2cccc(N3CCOCC3)c2)ncc1Br
- IC50 (NCI-H1975): 15500 nM
- inhibition [1]: 14.4%
- inhibition [2]: 32.2%
- IC50 (A549): 18200 nM
- IC50 (HCC827 [3]): 584 nM

SMILES: O=C(NO)c1ccsc1Nc1nc(Nc2ccc(N3CCOCC3)cc2)ncc1Cl
- Activity (HCC827 [4]): 25.12%
- IC50 [5]: 34.4 nM
- inhibition (Homo sapiens [6]): < 70%
- Activity (HCC827 [7]): 15.47%
- inhibition [8]: < 70%
- Activity (HCC827 [9]): 65.79%
- IC50 [10]: 37.9 nM
- inhibition (HCC827 [11]): Active
- inhibition [12]: < 70%
- inhibition (Homo sapiens [13]): < 70%
- IC50 (NCI-H1975): 135 nM
- inhibition [1]: 47.8%
- inhibition [14]: < 70%
- IC50 at 72 h [15]: 15200 nM
- Activity (HCC827 [16]): 15.6%
- inhibition (Homo sapiens [17]): < 70%
- inhibition [2]: 73.3%
- inhibition [18]: < 70%
- inhibition [19]: < 70%
- IC50 [20]: 26.7 nM
- Activity (HCC827 [21]): 14.08%
- inhibition [22]: < 70%
- inhibition [23]: < 70%
- inhibition [24]: < 70%
- IC50 [25]: 72.3 nM
- inhibition [26]: < 70%
- inhibition [27]: < 70%
- Activity (HCC827 [28]): 20.13%
- IC50 [29]: 897 nM
- IC50 (A549): 230 nM
- Activity (HCC827 [30]): 20.21%
- IC50 at 72 h [31]: 5030 nM
- inhibition [32]: < 70%
- inhibition [33]: 83.6%
- IC50 (HCC827 [3]): 31 nM
- Activity (HCC827 [34]): 59.28%
- Activity (HCC827 [35]): 64.32%

SMILES: O=C(NO)c1ccsc1Nc1nc(Nc2ccc(OCCN3CCOCC3)cc2)ncc1Br
- IC50 (NCI-H1975): 247 nM
- inhibition [1]: 19.7%
- inhibition [2]: 51.3%
- IC50 (A549): 718 nM
- IC50 (HCC827 [3]): 346 nM

SMILES: Cc1cnc(Nc2ccc(N3CCOCC3)cc2)nc1Nc1ccsc1C(=O)NO
- IC50 (NCI-H1975): 474 nM
- inhibition [1]: 42.1%
- inhibition [2]: 71.2%
- IC50 (A549): 169 nM
- IC50 (HCC827 [3]): 55 nM

SMILES: Cc1cnc(Nc2ccc(N3CCOCC3)cc2)nc1Nc1sccc1C(=O)NO
- IC50 (NCI-H1975): 347 nM
- inhibition [1]: 21.9%
- inhibition [2]: 57.2%
- IC50 (A549): 114 nM
- IC50 (HCC827 [3]): 230 nM

SMILES: O=C(NO)c1ccsc1Nc1ccnc(Nc2ccc(N3CCOCC3)cc2)n1
- IC50 (NCI-H1975): 542 nM
- inhibition [1]: 15.9%
- inhibition [2]: 50.2%
- IC50 (A549): 5630 nM
- IC50 (HCC827 [3]): 463 nM

SMILES: O=C(NO)c1ccsc1Nc1nc(Nc2ccc(CN3CCOCC3)cc2)ncc1Br
- IC50 (NCI-H1975): 879 nM
- inhibition [1]: 38.6%
- inhibition [2]: 62.5%
- IC50 (A549): 331 nM
- IC50 (HCC827 [3]): 48 nM
